# Experimental data from US20200011856A1, “Method for Determining the Effectiveness of Treatment for the Prevention of Heartworm Disease” (priority 2017, published 2020).
# Values joined by “and” are separate entries in the source; they are usually repeats but may differ in a detail not shown here. Equal values may be shown once.
# Columns and labels:
# [1] = tested on: Strongyloides stercoralis; test: Strongyloides stercoralis L3 infection of NSG mice with or without MPA, treatment, counts of adult worms, L1 and L3; details: 6 weeks post-injection; for Adult S. stercoralis recovery counts (individual mice) / Adult S. stercoralis recovery counts, mean / L1 S. stercoralis recovery counts (individual mice) / L1 S. stercoralis recovery counts, mean / L3 S. stercoralis recovery counts (individual mice) / L3 S. stercoralis recovery counts, mean: 5000 L3 s.c.
# From the text: NSG mice infected by subcutaneous injection with 5000 S. stercoralis L3 larvae, either with or without MPA. […] Adult worms, L1 larvae, or L3 larvae were counted in the mice at 6 weeks post-injection.
# [2] = tested on: Dirofilaria immitis (Merial worms, UC strain); test: D. immitis L3 infection of NSG mice with Merial worms / UC strain, treatment, recovery and count of worms; assay type: in vivo
# [3] = tested on: Dirofilaria immitis; test: D. immitis L3 infection of NSG mice (FR3 Missouri strain or strain not stated), treatment, recovery and count of worms at necropsy; assay type: in vivo; details: for % Rec / Survival / % Rec (percent of the original 50 Di recovered) / Survival (number of Di recovered from the mouse): individual mouse; for % Rec (percent of the original 50 Di recovered) / Survival (number of Di recovered from the mouse): 1 mg/kg
# [4] = tested on: Haemonchus contortus; test: Haemonchus contortus L3 infection of control and MPA-treated NSG mice, worm and egg recovery; assay type: in vivo
# [5] = EMO Control: 2.5 mg/kg EMO days 1, 15, 30, without MPA
# [6] = EMO/MPA: 2.5 mg/kg EMO days 1, 15, 30, with MPA (hyperinfection)
# [7] = EMO 1 mg/kg Days 1, 15, 30, 50 Di L3 (UC Strain) per NSG mouse, recovery Days 41 to 43, group mean
# [8] = EMO 1 mg/kg Days 1, 15, 30, 50 Di L3 (UC Strain) per NSG mouse, recovery Days 41 to 43, individual mice
# [9] = group mean, NSG mice, 50 Di L3 Merial worms, 1 mg/kg on Days 1, 15, and 30, recovery Days 41 to 43
# [10] = group mean, NSG mice, 50 Di L3 Merial worms, high dose 5 mg/kg on Days 1, 15, and 30, recovery Days 41 to 43
# [11] = group mean, NSG mice, 50 Di L3 UC strain, High Dose 5 mg/kg on Days 1, 15, and 30, recovery Days 41 and 42
# [12] = individual mouse, NSG mice, 50 Di L3 Merial worms, 1 mg/kg on Days 1, 15, and 30, recovery Days 41 to 43, 1 mg/kg
# [13] = individual mouse, NSG mice, 50 Di L3 Merial worms, high dose 5 mg/kg on Days 1, 15, and 30, recovery Days 41 to 43, 5 mg/kg
# [14] = individual mouse, NSG mice, 50 Di L3 UC strain, High Dose 5 mg/kg on Days 1, 15, and 30, recovery Days 41 and 42, 5 mg/kg
# [15] = NSG mice, 50 Di L3, 1x (1 mg/kg) at Day 30, recovery Days 41 to 43
# [16] = NSG mice, 50 Di L3, 2x (1 mg/kg) at Days 1 and 30, recovery Days 41 to 43
# [17] = NSG mice, 50 Di L3, 3x (1 mg/kg) at Days 1, 15, and 30, recovery Days 41 to 43
# [18] = NSG mice, 50 Di L3 Day 0, 1 mg/kg EMO or 8800 on Days 30 and 60, recovery Days 83 and 84
# [19] = NSG mice, 50 Di L3 Day 0, 1 mg/kg on Day 30, recovery Days 41 to 43
# [20] = Table 9, NSG mice, 50 Di L3, 1 mg/kg on Days 1, 15, and 30, recovery Days 41 to 43
# [21] = Table 9, group mean, NSG mice, 50 Di L3, 1 mg/kg on Days 1, 15, and 30, recovery Days 41 to 43
# [22] = Table 11, NSG mice, 50 Di L3, 5 mg/kg on Days 1, 15, and 30, recovery Days 41 to 42
# [23] = Table 11, group mean, NSG mice, 50 Di L3, 5 mg/kg on Days 1, 15, and 30, recovery Days 41 to 42
# [24] = group mean, NSG mice, 50 Di L3, 1x (1 mg/kg) at Day 30, recovery Days 41 to 43
# [25] = group mean, NSG mice, 50 Di L3 Day 0, 1 mg/kg EMO or 8800 on Days 30 and 60, recovery Days 83 and 84
# [26] = group mean, NSG mice, 50 Di L3 Day 0, 1 mg/kg on Day 30, recovery Days 41 to 43
structure (smiles),measurement,setting,value
"CC(C)C[C@H]1C(=O)O[C@H](Cc2ccc(N3CCOCC3)cc2)C(=O)N(C)[C@@H](CC(C)C)C(=O)O[C@H](C)C(=O)N(C)[C@@H](CC(C)C)C(=O)O[C@H](Cc2ccc(N3CCOCC3)cc2)C(=O)N(C)[C@@H](CC(C)C)C(=O)O[C@H](C)C(=O)N1C [EMO, emodepside]",Adult S. stercoralis recovery counts (individual mice),[1]; [5],0 (4×) and 1
same,"Adult S. stercoralis recovery counts, mean",[1]; [5],0.2
same,L1 S. stercoralis recovery counts (individual mice),[1]; [5],0
same,"L1 S. stercoralis recovery counts, mean",[1]; [5],0
same,L3 S. stercoralis recovery counts (individual mice),[1]; [5],5 (2×) and 8 and 0 and 1
same,"L3 S. stercoralis recovery counts, mean",[1]; [5],4
same,Adult S. stercoralis recovery counts (individual mice),[1]; [6],0
same,"Adult S. stercoralis recovery counts, mean",[1]; [6],0
same,L1 S. stercoralis recovery counts (individual mice),[1]; [6],0
same,"L1 S. stercoralis recovery counts, mean",[1]; [6],0
same,L3 S. stercoralis recovery counts (individual mice),[1]; [6],4 and 123 and 228 and 102 and 130 and 39 and 18
same,"L3 S. stercoralis recovery counts, mean",[1]; [6],92
same,Circulating L3,"[1]; NSG mice, 5000 S. stercoralis L3 SC, with or without MPA, 2.5 mg/kg on days 1, 15, and 30",reduced the circulating L3
same,"% Rec, Mean",[2]; [7],24%
same,"Survival, Mean",[2]; [7],12
same,% Rec,[2]; [8],18% (2×) and 26% and 30% (2×) and 12% and 36%
same,Survival,[2]; [8],9 (2×) and 13 and 15 (2×) and 6 and 18
same,% Red,"[2]; NSG mice, 50 Di L3 Merial worms, 1 mg/kg on Days 1, 15, and 30, recovery Days 41 to 43",35%
same,% Red,"[2]; NSG mice, 50 Di L3 Merial worms, high dose 5 mg/kg on Days 1, 15, and 30, recovery Days 41 to 43",0%
same,% Red,"[2]; NSG mice, 50 Di L3 UC strain, High Dose 5 mg/kg on Days 1, 15, and 30, recovery Days 41 and 42",47%
same,Mean % Rec,[2]; [9],22%
same,Mean Survival,[2]; [9],11
same,Mean % Rec,[2]; [10],51%
same,Mean Survival,[2]; [10],25
same,Mean % Rec,[2]; [11],19%
same,Mean Survival,[2]; [11],10
same,% Red,[2]; in vivo,37%
same,% Rec,[2]; [12],14% and 26% and 24% (2×) and 16% and 20% and 32% and 22%
same,Survival,[2]; [12],7 and 13 and 12 (2×) and 8 and 10 and 16 and 11
same,% Rec,[2]; [13],52% and 68% and 48% (4×) and 56% and 36%
same,Survival,[2]; [13],26 and 34 and 24 (4×) and 28 and 18
same,% Rec,[2]; [14],20% (3×) and 22% (2×) and 18% and 14%
same,Survival,[2]; [14],10 (3×) and 11 (2×) and 9 and 7
same,"HW parasite load (normalized percent larva recovery, FIG. 2)","[3]; NSG mice dosed orally with 1 mg/kg at Days 1, 15, and 30 post-infection, day 42/6 weeks",significantly reduced HW parasite load
same,% Red,[3]; [15],0%
same,% Red,[3]; [16],15%
same,% Red,[3]; [17],50%
same,% Red,[3]; [18],86%
same,% Red (percent reduction in percent of Di recovered compared to control),[3]; [19],30%
same,% Red,[3]; [20],33%
same,Mean % Rec,[3]; [21],22%
same,Mean Survival,[3]; [21],11
same,% Rec,[3]; [20],26% and 24% (2×) and 16% (2×) and 20% and 22%
same,Survival,[3]; [20],13 and 12 (2×) and 8 (2×) and 10 and 11
same,% Red,[3]; [22],0%
same,Mean % Rec,[3]; [23],26%
same,Mean Survival,[3]; [23],13
same,% Rec,[3]; [22],22% (2×) and 28% and 36% and 34% and 14%
same,Survival,[3]; [22],11 (2×) and 14 and 18 and 17 and 7
same,Mean % Rec,[3]; [24],39%
same,Mean Survival,[3]; [24],19
same,Mean % Rec,"[3]; group mean, NSG mice, 50 Di L3, 2x (1 mg/kg) at Days 1 and 30, recovery Days 41 to 43",29%
same,Mean % Rec,"[3]; group mean, NSG mice, 50 Di L3, 3x (1 mg/kg) at Days 1, 15, and 30, recovery Days 41 to 43",17%
same,Mean % Rec,[3]; [25],2%
same,Mean Survival,[3]; [25],1
same,Mean % Rec,[3]; [26],28%
same,Mean Survival,[3]; [26],14
same,Mean Survival,[3]; in vivo,14 and 9
same,% Rec,[3]; [15],36% and 28% (2×) and 46% (2×) and 42% and 44%
same,Survival,[3]; [15],18 and 14 (2×) and 23 (2×) and 21 and 22
same,% Rec,[3]; [16],28% and 26% (3×) and 30% and 42% and 22%
same,Survival,[3]; [16],14 and 13 (3×) and 15 and 21 and 11
same,% Rec,[3]; [17],28% (2×) and 14% and 22% and 4% and 6% and 20%
same,Survival,[3]; [17],14 (2×) and 7 and 11 and 2 and 3 and 10
same,% Rec (percent of the original 50 Di recovered),[3]; [18],2% (3×) and 0% (3×) and 6% (2×)
same,Survival (number of Di recovered from the mouse),[3]; [18],1 (3×) and 0 (3×) and 3 (2×)
same,% Rec (percent of the original 50 Di recovered),[3]; [19],24% and 30% (2×) and 32% and 28% and 26%
same,Survival (number of Di recovered from the mouse),[3]; [19],12 and 15 (2×) and 16 and 14 and 13
"CC(=O)OCC(=O)[C@@]1(O)CC[C@H]2[C@@H]3C[C@H](C)C4=CC(=O)C=C[C@]4(C)[C@H]3[C@@H](O)C[C@@]21C [MPA, methylprednisolone acetate]",Adult S. stercoralis recovery counts (individual mice),[1]; MPA only (hyperinfection),888 and 235 and 34 and 437 and 581 and 447
same,"Adult S. stercoralis recovery counts, mean",[1]; MPA only (hyperinfection),437
same,L1 S. stercoralis recovery counts (individual mice),[1]; MPA only (hyperinfection),86 and 24 and 8456 and 9181 and 3464 and 670
same,"L1 S. stercoralis recovery counts, mean",[1]; MPA only (hyperinfection),3647
same,L3 S. stercoralis recovery counts (individual mice),[1]; MPA only (hyperinfection),275 and 31 and 2760 and 1766 and 632 and 1015
same,"L3 S. stercoralis recovery counts, mean",[1]; MPA only (hyperinfection),1080
same,"Hc Recovery, Average","[4]; MPA-treated NSG mice, 500 Hc L3 oral gavage, 14 Days PI",10.5
same,"Hc Recovery, Average","[4]; MPA-treated NSG mice, 500 Hc L3 oral gavage, 21 Days PI",2
same,"Hc Recovery, Average","[4]; MPA-treated NSG mice, 500 Hc L3 oral gavage, 28 Days PI",0
same,"Hc Recovery, Average","[4]; MPA-treated NSG mice, 500 Hc L3 oral gavage, 56 Days PI",0
same,"Hc Recovery, Average","[4]; MPA-treated NSG mice, 500 Hc L3 oral gavage, 7 days PI",19.5
same,Hc Recovery (individual mice),"[4]; MPA-treated NSG mice, 1000 Hc L3 oral gavage, 14 Days PI",15 and 1
same,Hc Recovery (individual mice),"[4]; MPA-treated NSG mice, 1000 Hc L3 oral gavage, 21 Days PI",15 and 20
same,Hc Recovery (individual mice),"[4]; MPA-treated NSG mice, 1000 Hc L3 oral gavage, 28 Days PI",0 and 1
same,Hc Recovery (individual mice),"[4]; MPA-treated NSG mice, 1000 Hc L3 oral gavage, 56 Days PI",0
same,"Hc Recovery, Average","[4]; MPA-treated NSG mice, 1000 Hc L3 oral gavage, 7 days PI",36
same,# Eggs Found,[4]; in vivo,2
same,Hc Recovery (individual mice),"[4]; in vivo, po",19 and 2 and 0 and 36 and 3 and 24 and 48
